In ChEMBL document CHEMBL4627333, “Addition of ethylamines to the phenols of bithionol and synthetic retinoids does not elicit activity in gram-negative bacteria” (2020):
Converted amounts (≈) assume the structure as drawn.

Assays:
Staphylococcus aureus [1] = assay: Membrane disrupting activity in methicillin-resistant Staphylococcus aureus BF3 assessed as antibacterial activity by measuring inhibition of bacterial growth by CLSI-based antimicrobial dilution susceptibility method
Acinetobacter baumannii = assay: Membrane disrupting activity in Acinetobacter baumannii ATCC 17978 assessed as antibacterial activity by measuring inhibition of bacterial growth by CLSI-based antimicrobial dilution susceptibility method
Staphylococcus aureus [2] = assay: Membrane disrupting activity in methicillin-resistant Staphylococcus aureus BF1 assessed as antibacterial activity by measuring inhibition of bacterial growth by CLSI-based antimicrobial dilution susceptibility method
Staphylococcus aureus [3] = assay: Membrane disrupting activity in methicillin-resistant Staphylococcus aureus BF2 assessed as antibacterial activity by measuring inhibition of bacterial growth by CLSI-based antimicrobial dilution susceptibility method
Klebsiella pneumoniae = assay: Membrane disrupting activity in Klebsiella pneumoniae WGLW2 assessed as antibacterial activity by measuring inhibition of bacterial growth by CLSI-based antimicrobial dilution susceptibility method; conditions: subsp. pneumoniae WGLW2
Pseudomonas aeruginosa = assay: Membrane disrupting activity in Pseudomonas aeruginosa PA14 assessed as antibacterial activity by measuring inhibition of bacterial growth by CLSI-based antimicrobial dilution susceptibility method
Staphylococcus aureus [4] = assay: Membrane disrupting activity in methicillin-resistant Staphylococcus aureus MW2 assessed as antibacterial activity by measuring inhibition of bacterial growth by CLSI-based antimicrobial dilution susceptibility method

Structure (SMILES)	MIC (Staphylococcus aureus [1]) [µg/mL]	MIC (Acinetobacter baumannii) [µg/mL]	MIC (Staphylococcus aureus [2]) [µg/mL]	MIC (Staphylococcus aureus [3]) [µg/mL]	MIC (Klebsiella pneumoniae) [µg/mL]	MIC (Pseudomonas aeruginosa) [µg/mL]	MIC (Staphylococcus aureus [4]) [µg/mL]
NCCOc1c(Cl)cc(Cl)cc1Sc1cc(Cl)cc(Cl)c1OCCN	32 (≈ 72.4 µM)	64 (≈ 145 µM)	64 (≈ 145 µM)	64 (≈ 145 µM)	64 (≈ 145 µM)	> 64	64 (≈ 145 µM)
Oc1c(Cl)cc(Cl)cc1Sc1cc(Cl)cc(Cl)c1O [BITHIONOL]	0.5 (≈ 1.4 µM)	16 (≈ 44.9 µM)	1 (≈ 2.81 µM)	1 (≈ 2.81 µM)	64 (≈ 180 µM)	32 (≈ 89.9 µM)	1 (≈ 2.81 µM)
O=C(O)c1ccc2cc(-c3ccc(O)c(C45CC6CC(CC(C6)C4)C5)c3)ccc2c1 [O-DEMETHYLATED ADAPALENE]	1 (≈ 2.51 µM)	> 64	2 (≈ 5.02 µM)	2 (≈ 5.02 µM)	> 64	> 64	2 (≈ 5.02 µM)
NCCOc1ccc(-c2ccc3cc(CO)ccc3c2)cc1C12CC3CC(CC(C3)C1)C2	> 64	> 64	> 64	> 64	> 64	> 64	> 64
NCCOc1cc(CO)cc2ccc(-c3ccc(O)c(C45CC6CC(CC(C6)C4)C5)c3)cc12	4 (≈ 9.02 µM)	> 64	4 (≈ 9.02 µM)	4 (≈ 9.02 µM)	> 64	> 64	4 (≈ 9.02 µM)
NCCOc1cc(C(=O)O)cc2ccc(-c3ccc(O)c(C45CC6CC(CC(C6)C4)C5)c3)cc12	4 (≈ 8.74 µM)	> 64	8 (≈ 17.5 µM)	16 (≈ 35 µM)	> 64	> 64	8 (≈ 17.5 µM)
NCCOc1ccc(-c2ccc3cc(C(=O)O)ccc3c2)cc1C12CC3CC(CC(C3)C1)C2	> 64	> 64	> 64	> 64	> 64	> 64	> 64
